Assay results reported in patent publication US20080188502A1, “New Compounds I” (AstraZeneca AB, priority 2006, published 2008).
Where a name gives a salt, the structure may show the parent alone.

Biological target: T1, recombinant human GSK3β (Homo sapiens, UniProt P49841)
T1 construct: purchased Dundee University, UK
Experiment: GSK3β Scintillation Proximity Assay (ATP competition)
Format: biochemical
Settings: inhibition constants calculated with Km of ATP for GSK3β of 20 μM; 1 μM ATP, 1 μM biotinylated peptide substrate
Procedure: Determination of ATP Competition in Scintillation Proximity GSK3β Assay.
GSK3β Scintillation Proximity Assay.
The competition experiments were carried out in duplicate with 10 different concentrations of the inhibitors in clear-bottom microtiter plates (Wallac, Finland). A biotinylated peptide substrate, Biotin-Ala-Ala-Glu-Glu-Leu-Asp-Ser-Arg-Ala-Gly-Ser(PO3H2)-Pro-Gln-Leu (AstraZeneca, Lund), was added at a final concentration of 1 μM in an assay buffer containing 1 mU recombinant human GSK3β (Dundee University, UK), 12 mM morpholinepropanesulfonic acid (MOPS), pH 7.0, 0.3 mM EDTA, 0.01% β-mercaptoethanol, 0.004% Brij 35 (a […] detergent), 0.5% glycerol and 0.5 μg BSA/25 μl. The reaction was initiated by the addition of 0.04 μCi [γ-^33P]ATP (Amersham, UK) and unlabelled ATP at a final concentration of 1 μM and assay volume of 25 μl. After incubation for 20 minutes at room temperature, each reaction was terminated by the addition of 25 μl stop solution containing 5 mM EDTA, 50 μM ATP, 0.1% Triton X-100 and 0.25 mg streptavidin coated Scintillation Proximity Assay (SPA) beads (Amersham, UK). After 6 hours the radioactivity was determined in a liquid scintillation counter (1450 MicroBeta Trilux, Wallac). The inhibition curves were analysed by non-linear regression using GraphPad Prism, USA. The Km value of ATP for GSK3β, used to calculate the inhibition constants (Ki) of the various compounds, was 20 μM.

T1 sequence (P49841 whole entry): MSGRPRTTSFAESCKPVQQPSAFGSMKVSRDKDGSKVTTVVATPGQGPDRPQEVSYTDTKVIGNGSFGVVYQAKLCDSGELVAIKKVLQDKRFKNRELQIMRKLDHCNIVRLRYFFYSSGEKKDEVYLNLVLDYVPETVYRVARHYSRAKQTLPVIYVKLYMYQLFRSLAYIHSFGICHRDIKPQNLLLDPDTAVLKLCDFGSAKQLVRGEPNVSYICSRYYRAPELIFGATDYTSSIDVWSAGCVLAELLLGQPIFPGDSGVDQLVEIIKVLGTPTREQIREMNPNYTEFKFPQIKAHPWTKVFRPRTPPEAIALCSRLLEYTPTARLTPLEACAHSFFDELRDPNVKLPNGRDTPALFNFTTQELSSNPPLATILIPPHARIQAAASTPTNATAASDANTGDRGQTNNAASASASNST

Structure (SMILES) | Ki [nM]
Cc1ncc(-c2nc(Nc3cnc(C(=O)N4CCN(C)CC4)c(Cl)c3)ncc2F)n1C [Example 49, N-[5-Chloro-6-[(4-methylpiperazin-1-yl)carbonyl]pyridin-3-yl]-4-(1,2-dimethyl-1H-imidazol-5-yl)-5-fluoropyrimidin-2-amine] | 19
CCN(C)C(=O)c1ccc(Nc2ncc(F)c(-c3cnc(C)n3C3CCOCC3)n2)cn1 [Example 26, N-Ethyl-5-[[5-fluoro-4-[2-methyl-3-(oxan-4-yl)imidazol-4-yl]pyrimidin-2-yl]amino]-N-methyl-pyridine-2-carboxamide] | 31
Cc1ncc(-c2nc(Nc3ccc(C(=O)N4CCC4)nc3)ncc2F)n1C [Example 46, N-[6-(Azetidin-1-ylcarbonyl)pyridin-3-yl]-4-(1,2-dimethyl-1H-imidazol-5-yl)-5-fluoropyrimidin-2-amine] | 39
Cc1ncc(-c2nc(Nc3cnc(C(=O)N4CCC4)c(Cl)c3)ncc2F)n1C1CCOCC1 [Example 42, Azetidin-1-yl-[3-chloro-5-[[5-fluoro-4-[2-methyl-3-(oxan-4-yl)imidazol-4-yl]pyrimidin-2-yl]amino]pyridin-2-yl]methanone] | 11
O=C(c1ncc(Nc2ncc(F)c(-c3cnc(C(F)(F)F)n3C3CCOCC3)n2)cc1Cl)N1CCCCC1 [Example 57, N-[5-Chloro-6-(piperidin-1-ylcarbonyl)pyridin-3-yl]-5-fluoro-4-[1-(tetrahydro-2H-pyran-4-yl)-2-(trifluoromethyl)-1H-imidazol-5-yl]pyrimidin-2-amine hydrochloride] | 19
Cn1c(-c2nc(Nc3cnc(C(=O)N4CCCCC4)c(Cl)c3)ncc2F)cnc1C(F)(F)F [Example 56, N-[5-Chloro-6-(piperidin-1-ylcarbonyl)pyridin-3-yl]-5-fluoro-4-[1-methyl-2-(trifluoromethyl)-1H-imidazol-5-yl]pyrimidin-2-amine hydrochloride] | 55
CCN(Cc1ccccc1)C(=O)c1ccc(Nc2ncc(F)c(-c3cnc(C)n3C3CCOCC3)n2)cn1 [Example 33, N-Benzyl-N-ethyl-5-[[5-fluoro-4-[2-methyl-3-(oxan-4-yl)imidazol-4-yl]pyrimidin-2-yl]amino]pyridine-2-carboxamide] | 16
CCCN(CCC)C(=O)c1ccc(Nc2ncc(F)c(-c3cnc(C)n3C3CCOCC3)n2)cn1 [Example 24, 5-[[5-Fluoro-4-[2-methyl-3-(oxan-4-yl)imidazol-4-yl]pyrimidin-2-yl]amino]-N,N-dipropyl-pyridine-2-carboxamide] | 24
Cc1ncc(-c2nc(Nc3ccc(C(=O)N4CCN(C(C)C)CC4)nc3)ncc2F)n1C1CCOCC1 [Example 21, [5-[[5-Fluoro-4-[2-methyl-3-(oxan-4-yl)imidazol-4-yl]pyrimidin-2-yl]amino]pyridin-2-yl]-(4-propan-2-ylpiperazin-1-yl)methanone] | 90
Cc1ncc(-c2nc(Nc3ccc(C(=O)N4CCCC(C)C4)nc3)ncc2F)n1C1CCOCC1 (centres unmarked) [Example 14, [5-[[5-Fluoro-4-[2-methyl-3-(oxan-4-yl)imidazol-4-yl]pyrimidin-2-yl]amino]pyridin-2-yl]-(3-methyl-1-piperidyl)methanone] | 16
Cc1ncc(-c2nc(Nc3ccc(C(=O)N(Cc4ccccc4)C(C)C)nc3)ncc2F)n1C1CCOCC1 [Example 30, N-Benzyl-5-[[5-fluoro-4-[2-methyl-3-(oxan-4-yl)imidazol-4-yl]pyrimidin-2-yl]amino]-N-propan-2-yl-pyridine-2-carboxamide] | 17
CCC(C)N1CCN(C(=O)c2ccc(Nc3ncc(F)c(-c4cnc(C)n4C4CCOCC4)n3)cn2)CC1 (centres unmarked) [Example 34, (4-Butan-2-ylpiperazin-1-yl)-[5-[[5-fluoro-4-[2-methyl-3-(oxan-4-yl)imidazol-4-yl]pyrimidin-2-yl]amino]pyridin-2-yl]methanone] | 85
Cc1ncc(-c2nc(Nc3ccc(C(=O)N4CCC(C)CC4)nc3)ncc2F)n1C1CCOCC1 [Example 27, [5-[[5-Fluoro-4-[2-methyl-3-(oxan-4-yl)imidazol-4-yl]pyrimidin-2-yl]amino]pyridin-2-yl]-(4-methyl-1-piperidyl)methanone] | 28
Cc1ncc(-c2nc(Nc3ccc(C(=O)N4CCC(F)(F)CC4)nc3)ncc2F)n1C1CCOCC1 [Example 29, (4,4-Difluoro-1-piperidyl)-[5-[[5-fluoro-4-[2-methyl-3-(oxan-4-yl)imidazol-4-yl]pyrimidin-2-yl]amino]pyridin-2-yl]methanone] | 34
CN1CCN(C(=O)c2ncc(Nc3ncc(F)c(-c4cnc(C(F)(F)F)n4C4CCOCC4)n3)cc2Cl)CC1 [Example 43, [3-Chloro-5-[[5-fluoro-4-[3-(oxan-4-yl)-2-(trifluoromethyl)imidazol-4-yl]pyrimidin-2-yl]amino]pyridin-2-yl]-(4-methylpiperazin-1-yl)methanone] | 23
Cc1ncc(-c2nc(Nc3ccc(C(=O)N4CCN(C)CC4)nc3)ncc2F)n1C1CCOCC1 [Example 4, 5-Fluoro-N-{6-[(4-methylpiperazin-1-yl)carbonyl]pyridin-3-yl}-4-[2-methyl-1-(tetrahydro-2H-pyran-4-yl)-1H-imidazol-5-yl]pyrimidin-2-amine] | 63
Cc1ncc(-c2nc(Nc3ccc(C(=O)N4CCN(Cc5ccccc5)CC4)nc3)ncc2F)n1C1CCOCC1 [Example 28, (4-Benzylpiperazin-1-yl)-[5-[[5-fluoro-4-[2-methyl-3-(oxan-4-yl)imidazol-4-yl]pyrimidin-2-yl]amino]pyridin-2-yl]methanone] | 19
Cc1ncc(-c2nc(Nc3ccc(C(=O)N4CCCCC4)nc3)ncc2F)n1C1CCOCC1 [Example 20, [5-[[5-Fluoro-4-[2-methyl-3-(oxan-4-yl)imidazol-4-yl]pyrimidin-2-yl]amino]pyridin-2-yl]-(1-piperidyl)methanone] | 26
CCN(C(=O)c1ccc(Nc2ncc(F)c(-c3cnc(C)n3C3CCOCC3)n2)cn1)C(C)C [Example 19, N-Ethyl-5-[[5-fluoro-4-[2-methyl-3-(oxan-4-yl)imidazol-4-yl]pyrimidin-2-yl]amino]-N-propan-2-yl-pyridine-2-carboxamide] | 25
Cc1ncc(-c2nc(Nc3ccc(S(=O)(=O)N4CCN(C)CC4)nc3)ncc2F)n1C1CCOCC1 [Example 58, {5-Fluoro-4-[2-methyl-3-(tetrahydro-pyran-4-yl)-3H-imidazol-4-yl]-pyrimidin-2-yl}-[6-(4-methyl-piperazine-1-sulfonyl)-pyridin-3-yl]-amine] | 30
Cc1ncc(-c2nc(Nc3ccc(C(=O)N4CCC4)nc3)ncc2F)n1C1CCOCC1 [Example 5, N-[6-(Azetidin-1-ylcarbonyl)pyridin-3-yl]-5-fluoro-4-[2-methyl-1-(tetrahydro-2H-pyran-4-yl)-1H-imidazol-5-yl]pyrimidin-2-amine] | 70
Cc1ncc(-c2nc(Nc3ccc(C(=O)N(C)CC(C)C)nc3)ncc2F)n1C1CCOCC1 [Example 31, 5-[[5-Fluoro-4-[2-methyl-3-(oxan-4-yl)imidazol-4-yl]pyrimidin-2-yl]amino]-N-methyl-N-(2-methylpropyl)pyridine-2-carboxamide] | 12
Cn1c(-c2nc(Nc3cnc(C(=O)N4CCC4)c(Cl)c3)ncc2F)cnc1C(F)(F)F [Example 45, Azetidin-1-yl-[3-chloro-5-[[5-fluoro-4-[3-methyl-2-(trifluoromethyl)imidazol-4-yl]pyrimidin-2-yl]amino]pyridin-2-yl]methanone hydrochloride] | 32
